Values after ≈ are worked out from the molar mass of the structure shown. Like-named read-outs stand apart in the source and are kept apart here.
Columns and labels:
[1] = test system: methicillin-resistant Staphylococcus aureus (MRSA) isolates; assay: MIC measured by agar dilution method (CLSI); assay type: cell-based; conditions: for MIC: Staphylococcus aureus, MRSA
Description: (§1) Spontaneous mutation and minimal inhibit concentration (MIC) tested by agar dilution method, the above compounds are respectively prepared into a stock solution (100X) with a concentration 100 times the highest final concentration in corresponding solvents and used on the same day. Before use, I is further diluted with DMSO; and oxacillin, rifampicin and levofloxacin are further diluted with water.
(§2) Bacterial isolates: Staphylococcus aureus isolates are retrieved from the −80° C. storage room of Micromyx Culture Collection, thawed, plated onto Tryptic Soy Agar+5% sheep blood (Remel; Lenexa, Kans.), and then incubated aerobically at 35° C. overnight. S. aureus ATCC 29213 (MRSA; MMX 0100) was included during testing only for the purpose of quality control. Test Media: The isolates were tested in both the agar dilution MIC assay and the spontaneous mutation assay using Mueller-Hinton Agar (MHA; BD/BBL; Lot No. 6229829 & 4216798). Inocula of each isolate were suspended in cation-adjusted Mueller-Hinton Broth (CAMHB) (BD/BBL; Lot Nos. 5257869 & 6258541). Sodium chloride (Sigma-Aldrich; Lot No. SLBL0434V) was added to CAMHB at a final concentration of 2% when testing oxacillin. Dilutions of bacterial cell suspensions for the purpose of performing colony counts were also made in CAMHB.
(§3) MIC measured by agar dilution method: according to the recommendation from the Clinical and Laboratory Standards Institute (CLSI), the MIC value is measured by the agar dilution method. […] Each test agent was combined with molten MHA agar (50-55° C.) at a ratio of 0.2 mL of 100× test agent to 19.8 mL agar in a sterile tube, mixed gently, and then poured into a sterile petri plate (BD Falcon). Plates were allowed to solidify at room temperature. A 0.5 McFarland standard bacterial suspension was prepared, diluted 1:10 in CAMHB, and transferred to the wells of a stainless steel replicator block before stamping onto plates containing drug, resulting in 10^4 CFU/spot. After allowing the inoculum to dry on the surface of the agar, the plates were inverted, incubated aerobically at 35° C. for 20-24 hr, and inspected for growth.

[2] = test system: Staphylococcus aureus ATCC 29213; assay: MIC measured by fluid broth microdilution method (quality control); assay type: cell-based; conditions: ATCC29213
[3] = test system: Staphylococcus aureus ATCC 29213; assay: MIC measured by agar dilution method, quality control strain; assay type: cell-based; conditions: strain 100, MSSA QC strain
Description: as §1, §2, §3
In parallel experiments, a standard bacterium suspension with a […] turbidity of 0.5 is prepared as a standard inoculum for agar dilution analysis (10^4 CFU/point). […] In this step, the broths and drugs used in the spontaneous mutation analysis are used to confirm that the concentration of the drug stock solution can inhibit the growth of the standard inoculum. The quality of the levofloxacin stock solution is controlled by a standard inoculum and levofloxacin of 8-0.008 μg/mL, and separate agar dilution analysis is performed. […]

[4] = test system: Staphylococcus aureus ATCC 29213; conditions: agar dilution; cited from earlier work
[5] = strain 3085, LEV^S RIF^S, agar dilution
[6] = strain 3090, LEV^R RIF^S, agar dilution
[7] = strain 3094, LEV^R RIF^S, agar dilution
[8] = strain 3098, LEV^S RIF^S, agar dilution
[9] = strain 3265, LEV^R RIF^S, agar dilution
[10] = strain 3266, LEVR RIFS, agar dilution
[11] = strain 3270, LEV^R RIF^S, agar dilution
[12] = strain 3271, LEV^R RIF^S, agar dilution
[13] = strain 3277, LEV^S RIF^S, agar dilution
[14] = strain 3278, LEV^S RIF^S, agar dilution
[15] = strain 6312, LEV^R RIF^S, agar dilution
[16] = strain 6313, LEV^R RIF^S, agar dilution
[17] = strain 6315, LEV^R RIF^S, agar dilution
[18] = strain 6498, LEV^R RIF^S, agar dilution
[19] = strain 6501, LEV^R RIF^S, agar dilution
[20] = strain 6505, LEV^R RIF^S, agar dilution
[21] = strain 7771, LEV^R RIF^S, agar dilution
[22] = strain 7772, LEV^S RIF^S, agar dilution
[23] = strain 7773, LEV^R RIF^S, agar dilution
[24] = strain 7774, LEV^R RIF^S, agar dilution
[25] = strain 7775, LEV^R, agar dilution

C[C@H]1COc2c(N3CCN(C)CC3)c(F)cc3c(=O)c(C(=O)O)cn1c23 [Levofloxacin]
MIC ([1]; read-out: MIC over all strains under test): 0.25 to 64 µg/mL (≈ 0.692 to 177 µM)
MIC [1, 5]: 0.25 µg/mL (≈ 0.692 µM)
MIC [1, 6]: 32 µg/mL (≈ 88.6 µM)
MIC [1, 7]: > 64 µg/mL
MIC [1, 8]: 0.25 µg/mL (≈ 0.692 µM)
MIC [1, 9]: 64 µg/mL (≈ 177 µM)
MIC [1, 10]: 64 µg/mL (≈ 177 µM)
MIC [1, 11]: 4 µg/mL (≈ 11.1 µM)
MIC [1, 12]: 4 µg/mL (≈ 11.1 µM)
MIC [1, 13]: 0.25 µg/mL (≈ 0.692 µM)
MIC [1, 14]: 0.25 µg/mL (≈ 0.692 µM)
MIC [1, 15]: 16 µg/mL (≈ 44.3 µM)
MIC [1, 16]: 16 µg/mL (≈ 44.3 µM)
MIC [1, 17]: > 64 µg/mL
MIC [1, 18]: 8 µg/mL (≈ 22.1 µM)
MIC [1, 19]: 8 µg/mL (≈ 22.1 µM)
MIC [1, 20]: 4 µg/mL (≈ 11.1 µM)
MIC [1, 21]: > 64 µg/mL
MIC [1, 22]: 0.25 µg/mL (≈ 0.692 µM)
MIC [1, 23]: 8 µg/mL (≈ 22.1 µM)
MIC [1, 24]: > 64 µg/mL
MIC [1, 25]: 16 µg/mL (≈ 44.3 µM)
MIC [2]: 0.25 µg/mL (≈ 0.692 µM)
MIC [3]: 0.25 µg/mL (≈ 0.692 µM)

Cc1onc(-c2ccccc2)c1C(=O)N[C@@H]1C(=O)N2[C@@H]1SC(C)(C)[C@@H]2C(=O)O [Oxacillin]
MIC quality control range of CLSI [4]: 0.12 to 0.5 µg/mL
sensitivity of the strains (resistant / sensitive) [1]: resistant
MIC [1, 5]: > 8 µg/mL
MIC [1, 6]: > 8 µg/mL
MIC [1, 7]: > 8 µg/mL
MIC [1, 8]: > 8 µg/mL
MIC [1, 9]: > 8 µg/mL
MIC [1, 10]: > 8 µg/mL
MIC [1, 11]: > 8 µg/mL
MIC [1, 12]: > 8 µg/mL
MIC [1, 13]: > 8 µg/mL
MIC [1, 14]: > 8 µg/mL
MIC [1, 15]: > 8 µg/mL
MIC [1, 16]: > 8 µg/mL
MIC [1, 17]: > 8 µg/mL
MIC [1, 18]: > 8 µg/mL
MIC [1, 19]: > 8 µg/mL
MIC [1, 20]: > 8 µg/mL
MIC [1, 21]: > 8 µg/mL
MIC [1, 22]: > 8 µg/mL
MIC [1, 23]: > 8 µg/mL
MIC [1, 24]: > 8 µg/mL
MIC [1, 25]: > 8 µg/mL
MIC [3]: 0.25 µg/mL (≈ 0.623 µM)

From patent US20220087990A1, “APPLICATION OF RIFAMYCIN-QUINOLIZIDONE CONJUGATE MOLECULE AND PHARMACEUTICALLY ACCEPTABLE SALT THEREOF” (priority 2019, published 2022)
